Test results published in patent US12180187B2, “1-phenyl-5-azinylpyrazolyl-3-oxyalkyl acids and their use for controlling unwanted plant growth” (BAYER AKTIENGESELLSCHAFT, priority 2019, dated 2024).

Legend:
[1] = system: ECHGC; assay: Pre-emergence action at 320 g/ha against ECHGC; assay type: in vivo, Echinochloa crus-galli; conditions: visual scoring after about 3 weeks vs untreated controls
Excerpt: (§1) b) Seeds of monocotyledonous and dicotyledonous weed plants and crop plants are placed in plastic or organic planting pots and covered with soil. The compounds of the invention, formulated in the form of wettable powders (WP) or as emulsion concentrates (EC), are then applied onto the surface of the covering soil as aqueous suspension or emulsion with addition of 0.5% additive at a water application rate of 600 l/ha (converted). After the treatment, the pots are placed in a greenhouse and kept under good growth conditions for the trial plants. After about 3 weeks, the effect of the preparations is scored visually in comparison with untreated controls as percentages. For example, 100% activity=the plants have died, 0% activity=like control plants. Tables 13 to 26 below show the effects of selected compounds of the general formula (I) on various harmful plants and at an application rate corresponding to 320 g/ha, which were obtained by the experimental procedure mentioned above.

[2] = system: POLCO; assay: Pre-emergence action at 320 g/ha against POLCO; assay type: in vivo, Fallopia convolvulus (Polygonum convolvulus); conditions: visual scoring after about 3 weeks vs untreated controls
Summary of the method: (§2)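 Visual scoring in percent against untreated controls, about 3 weeks after treatment, where 100% means dead plants and 0% means no difference. Compounds were applied as aqueous suspension or emulsion (WP or EC, plus 0.5% additive) onto soil covering freshly sown seeds, at 600 l/ha water.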

[3] = system: VIOTR; assay: Pre-emergence action at 320 g/ha against VIOTR; assay type: in vivo, Viola tricolor; conditions: dosage 320 g/ha
Summary of the method: as §2

[4] = system: SETVI; assay: Pre-emergence action at 320 g/ha against SETVI; assay type: in vivo, Setaria viridis; conditions: visual scoring after about 3 weeks vs untreated controls
Excerpt: as §1

[5] = system: AVEFA; assay: Pre-emergence action at 320 g/ha against AVEFA; assay type: in vivo; conditions: visual scoring after about 3 weeks vs untreated controls
Excerpt: as §1

[6] = system: DIGSA; assay: Pre-emergence action at 320 g/ha against DIGSA; assay type: in vivo, Digitaria sanguinalis; conditions: visual scoring after about 3 weeks vs untreated controls
Excerpt: as §1

[7] = system: AMARE; assay: Pre-emergence action at 320 g/ha against AMARE; assay type: in vivo, Amaranthus retroflexus; conditions: visual scoring after about 3 weeks vs untreated controls
Summary of the method: as §2

[8] = system: MATIN; assay: Pre-emergence action at 320 g/ha against MATIN; assay type: in vivo, Tripleurospermum inodorum (Matricaria inodora); conditions: visual scoring after about 3 weeks vs untreated controls
Excerpt: as §1

[9] = system: LOLRI; assay: Pre-emergence action at 320 g/ha against LOLRI; assay type: in vivo, Lolium rigidum; conditions: visual scoring after about 3 weeks vs untreated controls
Excerpt: as §1

[10] = system: ALOMY; assay: Pre-emergence action at 320 g/ha against ALOMY; assay type: in vivo, Alopecurus myosuroides; conditions: scored visually after about 3 weeks vs untreated controls (100% = plants have died)
Summary of the method: as §2

[11] = system: VERPE; assay: Pre-emergence action at 320 g/ha against VERPE; assay type: in vivo, Veronica persica; conditions: visual scoring after about 3 weeks vs untreated controls
Excerpt: as §1

[12] = system: MATIN; assay: Post-emergence action against MATIN, 1.28 kg/ha; assay type: in vivo, Tripleurospermum inodorum (Matricaria inodora); conditions: dosage 1280 g/ha, visual rating about 3 weeks after treatment vs untreated controls (100% = plants died)
Summary of the method: (§3)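 Greenhouse-grown weeds (sandy loam, twin-sown pots) were treated 2–3 weeks post-sowing at one leaf. The spray was an aqueous WP/EC preparation plus 0.5% additive, applied at 600 L/ha. Scoring was visual at ~3 weeks, 0–100% versus untreated controls.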

[13] = system: SETVI; assay: Pre-emergence action against SETVI, 1280 g/ha; assay type: in vivo, Setaria viridis; conditions: visual scoring after about 3 weeks vs untreated controls, 100% = plants have died, 0% = like control plants
Summary of the method: (§4)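 Percent herbicidal effect, judged by eye relative to untreated pots around 3 weeks after soil-surface treatment. Application: formulated compound in water, 600 L/ha, 0.5% additive, on soil over sown seeds; greenhouse.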

[14] = system: LOLRI; assay: Pre-emergence action against LOLRI, 1280 g/ha; assay type: in vivo, Lolium rigidum; conditions: visual scoring after about 3 weeks vs untreated controls, 100% = plants have died, 0% = like control plants
Summary of the method: as §4

[15] = system: STEME; assay: Pre-emergence action against STEME, 1280 g/ha; assay type: in vivo, Stellaria media; conditions: scored visually after about 3 weeks vs untreated controls (100% = plants have died)
Summary of the method: as §4

[16] = system: ALOMY; assay: Post-emergence action against ALOMY, 1.28 kg/ha; assay type: in vivo, Alopecurus myosuroides; conditions: dosage 1280 g/ha, visual rating about 3 weeks after treatment vs untreated controls
Summary of the method: as §3

[17] = system: MATIN; assay: Pre-emergence action against MATIN, 1280 g/ha; assay type: in vivo, Tripleurospermum inodorum (Matricaria inodora); conditions: scored visually after about 3 weeks vs untreated controls (100% = plants have died)
Summary of the method: as §4

[18] = system: POAAN; assay: Post-emergence action against POAAN, 1.28 kg/ha; assay type: in vivo, Poa annua; conditions: dosage 1280 g/ha, visual rating about 3 weeks after treatment vs untreated controls
Summary of the method: as §3

[19] = system: VERPE; assay: Post-emergence action against VERPE, 1.28 kg/ha; assay type: in vivo, Veronica persica; conditions: dosage 1280 g/ha, visual rating about 3 weeks after treatment vs untreated controls (100% = plants died)
Summary of the method: as §3

[20] = system: ALOMY; assay: Pre-emergence action against ALOMY, 1280 g/ha; assay type: in vivo, Alopecurus myosuroides; conditions: visual scoring after about 3 weeks vs untreated controls, 100% = plants have died, 0% = like control plants
Summary of the method: as §4

[21] = system: KCHSC; assay: Post-emergence action against KCHSC, 1.28 kg/ha; assay type: in vivo, Bassia scoparia; conditions: dosage 1280 g/ha, visual rating about 3 weeks after treatment vs untreated controls (100% = plants died)
Description: • a) Seeds of mono- and dicotyledonous weed plants are placed in plastic pots in sandy loam soil (twin sowing with one species each of mono- or dicotyledonous weed plants per pot), covered with soil and cultivated in a greenhouse under controlled growth conditions. 2 to 3 weeks after sowing, the test plants are treated at the one-leaf stage. The compounds of the invention, formulated in the form of wettable powders (WP) or as emulsion concentrates (EC), are applied to the green parts of the plants as aqueous suspension or emulsion with addition of 0.5% additive at a water application rate equivalent to 600 litres per hectare. After the test plants have been kept in the greenhouse under optimum growth conditions for about 3 weeks, the activity of the preparations is rated visually in comparison to untreated controls. For example, 100% activity=the plants have died, 0% activity=like control plants. As shown by the results, compounds of the general formula (I) of the invention, in post-emergence treatment, have very good herbicidal efficacy (90% to 100% herbicidal action) against harmful plants such as Abutilon theophrasti, Digitaria sanguinalis, Echinochloa crus-galli, Matricaria inodora, Poa annua, at an application rate of 1.28 kg of active substance per hectare.

[22] = system: POAAN; assay: Pre-emergence action against POAAN, 1280 g/ha; assay type: in vivo, Poa annua; conditions: visual scoring after about 3 weeks vs untreated controls, 100% = plants have died, 0% = like control plants
Summary of the method: as §4

[23] = system: AMARE; assay: Pre-emergence action against AMARE, 1280 g/ha; assay type: in vivo, Amaranthus retroflexus; conditions: scored visually after about 3 weeks vs untreated controls (100% = plants have died)
Summary of the method: as §4

[24] = system: ECHCG; assay: Pre-emergence action against ECHCG, 1280 g/ha; assay type: in vivo, Echinochloa crus-galli; conditions: visual scoring after about 3 weeks vs untreated controls, 100% = plants have died, 0% = like control plants
Summary of the method: as §4

[25] = system: AMARE; assay: Post-emergence action against AMARE, 1.28 kg/ha; assay type: in vivo, Amaranthus retroflexus; conditions: dosage 1280 g/ha, visual rating about 3 weeks after treatment vs untreated controls (100% = plants died)
Summary of the method: as §3

[26] = system: DIGSA; assay: Pre-emergence action against DIGSA, 1280 g/ha; assay type: in vivo, Digitaria sanguinalis; conditions: visual scoring after about 3 weeks vs untreated controls, 100% = plants have died, 0% = like control plants
Summary of the method: as §4

[27] = system: VERPE; assay: Pre-emergence action against VERPE, 1280 g/ha; assay type: in vivo, Veronica persica; conditions: scored visually after about 3 weeks vs untreated controls (100% = plants have died)
Summary of the method: as §4

[28] = system: DIGSA; assay: Post-emergence action against DIGSA, 1.28 kg/ha; assay type: in vivo, Digitaria sanguinalis; conditions: dosage 1280 g/ha, visual rating about 3 weeks after treatment vs untreated controls
Summary of the method: as §3

[29] = system: ABUTH; assay: Post-emergence action against ABUTH, 1.28 kg/ha; assay type: in vivo, Abutilon theophrasti; conditions: dosage 1280 g/ha, visual rating about 3 weeks after treatment vs untreated controls (100% = plants died)
Summary of the method: as §3

[30] = system: ECHCG; assay: Post-emergence action against ECHCG, 1.28 kg/ha; assay type: in vivo, Echinochloa crus-galli; conditions: dosage 1280 g/ha, visual rating about 3 weeks after treatment vs untreated controls
Summary of the method: as §3

[31] = system: SETVI; assay: Post-emergence action against SETVI, 1.28 kg/ha; assay type: in vivo, Setaria viridis; conditions: dosage 1280 g/ha, visual rating about 3 weeks after treatment vs untreated controls
Summary of the method: as §3

O=C(O)C(F)Oc1nn(-c2ccccc2F)c(-c2ccc(F)nc2)c1Br (stereo not shown) [VII-057-a]
100%: Pre-emergence action against VIOTR in % [3] | Pre-emergence action against SETVI in % [4] | Pre-emergence action against DIGSA in % [6] | Pre-emergence action against AMARE in % [7]
90%: Pre-emergence action against MATIN in % [8] | Pre-emergence action against LOLRI in % [9]
80%: Pre-emergence action against ECHGC in % [1] | Pre-emergence action against POLCO in % [2] | Pre-emergence action against AVEFA in % [5]

COC(=O)C(C)Oc1nn(-c2ccccc2F)c(-c2ccc(F)nc2)c1Br (stereo not shown) [VII-060]
90%: Pre-emergence action against ECHGC in % [1] | Pre-emergence action against POLCO in % [2] | Pre-emergence action against SETVI in % [4] | Pre-emergence action against AVEFA in % [5] | Pre-emergence action against MATIN in % [8]
100%: Pre-emergence action at 320 g/ha against ALOMY in % [10] | Pre-emergence action against VERPE in % [11] | Pre-emergence action against VIOTR in % [3] | Pre-emergence action against DIGSA in % [6] | Pre-emergence action against AMARE in % [7] | Pre-emergence action against LOLRI in % [9]

CCOC(=O)COc1nn(-c2ccc(F)cc2)c(-c2ccc(F)nc2)c1I [VII-102]
100%: Post-emergence action against MATIN [12] | Pre-emergence action against SETVI [13] | Pre-emergence action against LOLRI [14] | Post-emergence action against ALOMY [16] | Post-emergence action against POAAN [18] | Post-emergence action against VERPE [19] | Pre-emergence action against POAAN [22] | Pre-emergence action against ECHCG [24] | Post-emergence action against AMARE [25] | Pre-emergence action against DIGSA [26] | Pre-emergence action against VERPE [27]
90%: Pre-emergence action against STEME [15] | Pre-emergence action against MATIN [17] | Pre-emergence action against ALOMY [20] | Post-emergence action against KCHSC [21] | Pre-emergence action against AMARE [23]

COC(=O)COc1nn(-c2ccccc2F)c(-c2ccc(F)nc2)c1I [VII-113]
90%: Pre-emergence action at 320 g/ha against ALOMY in % [10] | Pre-emergence action against ECHGC in % [1] | Pre-emergence action against POLCO in % [2] | Pre-emergence action against VERPE in % [11] | Pre-emergence action against SETVI in % [4] | Pre-emergence action against AVEFA in % [5] | Pre-emergence action against MATIN in % [8]
100%: Pre-emergence action against VIOTR in % [3] | Pre-emergence action against AMARE in % [7] | Pre-emergence action against LOLRI in % [9]

O=C(COc1nn(-c2ccccc2F)c(-c2ccnc(F)c2)c1Br)OCC1CCOC1 (stereo not shown) [VIII-011]
100%: Pre-emergence action at 320 g/ha against ALOMY in % [10] | Pre-emergence action against SETVI [13] | Pre-emergence action against LOLRI [14] | Pre-emergence action against STEME [15] | Post-emergence action against ALOMY [16] | Pre-emergence action against MATIN [17] | Post-emergence action against POAAN [18] | Post-emergence action against VERPE [19] | Pre-emergence action against VIOTR in % [3] | Pre-emergence action against POAAN [22] | Post-emergence action against DIGSA [28] | Pre-emergence action against AMARE [23] | Pre-emergence action against ECHCG [24] | Pre-emergence action against DIGSA in % [6] | Pre-emergence action against AMARE in % [7] | Post-emergence action against AMARE [25] | Post-emergence action against ECHCG [30] | Post-emergence action against SETVI [31] | Pre-emergence action against VERPE [27]
90%: Post-emergence action against MATIN [12] | Pre-emergence action against ECHGC in % [1] | Pre-emergence action against ALOMY [20] | Pre-emergence action against SETVI in % [4] | Post-emergence action against ABUTH [29] | Pre-emergence action against DIGSA [26] | Pre-emergence action against MATIN in % [8] | Pre-emergence action against LOLRI in % [9]
